Test results reported in US11655244B2, “Carbazole compounds and methods of use thereof” (GSNO Therapeutics, Inc, priority 2017, dated 2023).
“Also recorded” adds a separate entry of the source. Like-named read-outs stand apart in the source and are kept apart here.

Assays:
GSNOR enzyme [1] = target: T1, GSNOR enzyme (Homo sapiens, UniProt P11766); experiment: GSNOR inhibition assay (rate of NADH consumption, 340 nm absorbance); assay type: biochemical
Method: The following compounds were also prepared based on the methods described herein, using the appropriate starting materials. Table 2a and Table 2b also provides the % GSNOR inhibition at 20 μM of compounds described herein. […] The buffer was 100 mM phosphate buffer (pH 7.4.) The rate of NADH consumption for each well was determined by ultraviolet spectroscopy. Plates were read on a Molecular Devices Spectra Max UV/Visible Spectrophotometer/plate reader and the change in 340 nm absorbance at 25° C. was recorded for each well at 10 sec intervals over the duration of the recording period (2˜5 minutes). The rate was measured from the linear portion of the curve. Final test compound concentration was 20 μM. The mean % inhibition from 3 test compound wells and 5 control wells was measured as the percentage of the mean no compound+enzyme−the mean no enzyme, no compound control.

[2] = tested on: non-alcoholic steatohepatitis (NASH) in male C57BL/6 mice; experiment: Non-alcoholic steatohepatitis (NASH) model, Streptozotocin plus 60% kcal fat diet; assay type: in vivo; conditions: for liver to body weight ratio: disease control 0.066; for decrease of percentage collagen proportion area (CPA), Masson's trichrome staining, liver: vs disease control
Method: Timed pregnant mice (n=44) were selected for the study. The delivered pups were subcutaneously injected on post-natal day 2 with 200 μg of Streptozotocin and were allowed to remain with the mother until they reached the weanling age. After weanling, the male pups were selected and fed with 60% kcal fat diet (Research Diet-D12492) for next 6 weeks. All the animals were observed once daily for clinical signs and twice daily for morbidity and mortality.
Mice were dosed with vehicle, Compound 17 (at 3 mg/kg or 10 mg/kg) and 10 mg/kg of reference compound (either Obeticholic acid (OCA) or Elafibranor (ELA, GFT505)) once daily before the start of dark cycle (6:00 PM) from day 0 to 21. Animal body weight measurements were made daily for the complete duration of the experiment. Animals were dosed for 21 days (from week 9 to 12) with the test and reference compounds. Blood glucose was estimated before the treatment start, day 11 and on the termination day. Histopathology analysis including the H&E staining, Masson's trichrome staining and the Oil-red-O (ORO) staining was performed for the liver tissues.

[3] = tested on: Bleomycin-induced idiopathic pulmonary fibrosis model in male C57BL/6 mice; experiment: Bleomycin-induced idiopathic pulmonary fibrosis model; assay type: in vivo; conditions: 10 mg/kg, i.p., once daily from day 14 to 28
Method: Compound 17 was made-up fresh every 4 days. A required amount of the test compound was weighed in a glass vial and the purity factor was calculated. A stock solution of 1 mg/ml (10 mg/kg) was made in distilled water (pH 8) and the subsequent 3 and 1 mg/kg doses (concentrations) were obtained by serial dilution of the 1 mg/ml stock solution. A clear and transparent solution was observed. Animals were dosed with Compound 17 at 1 mg/kg, 3 mg/kg and 10 mg/kg, i.p (intraperitoneal), once daily from day 14 to 28.
Pirfenidone was weighed in a glass vial and suspended in 0.5% methyl cellulose to obtain a 10 mg/ml formulation. A clear homogenous suspension was observed. Animals were dosed with Pirfenidone at 100 mg/kg, p.o., b.i.d., from day 14 to 28.

IL-6 = experiment: LPS/cytokine assay (mouse inflammation assay), IL-6; assay type: in vivo, CD-1 male mice
Method: Table 2b also includes additional biological data of compounds described herein. The LPS/cytokine Assay was carried out in CD-1 male mice. The assay measured the level of various cytokines, including IL-6, IL-17, and IL-23, after induction by bacterial liposaccharide (LPS). Compounds were dosed by IP or IV routes of administration at varying times before and after LPS and the cytokine concentrations were measured at varying times, typically 6 hrs, after LPS by standard methods using ELISA kits.
BIOLOGICAL TESTING: Compounds 10 and 17 from Table 1 were tested in a mouse inflammation assay. Briefly, CD-1 mice were dosed with compound, 12 hrs before injecting mice I.P. with the potent cytokine inducer, bacterial lipopolysaccharide (LPS). The mice were euthanized 6 hrs after the LPS was injected and their serum prepared by standard methods. The concentration of IL-6 in the serum of each experimental animal was measured using an IL-6 ELISA kit from Enzo. The compounds tested were active.
This LPS/cytokine assay was carried out in healthy mice and measured the level of cytokine IL-6, IL-17, and 23 induction by LPS. Compounds are dosed (either orally (“p.o.”) or intravenously (“i.v.”) at varying times before and after LPS, and the cytokines are measured at varying times after LPS. The effect of the tested compounds (Table 5) on IL-6 release is shown in FIG. 7. The effect of the tested compounds (Table 6) on IL-17 an IL-23 release is shown in FIG. 11 and FIG. 12, respectively.

GSNOR enzyme [4] = target: T1, GSNOR enzyme; experiment: GSNOR inhibition assay (rate of NADH consumption, 340 nm absorbance); assay type: biochemical; conditions: Table 2b; read-out: IC50 Micromolar

T1 sequence (P11766 whole entry): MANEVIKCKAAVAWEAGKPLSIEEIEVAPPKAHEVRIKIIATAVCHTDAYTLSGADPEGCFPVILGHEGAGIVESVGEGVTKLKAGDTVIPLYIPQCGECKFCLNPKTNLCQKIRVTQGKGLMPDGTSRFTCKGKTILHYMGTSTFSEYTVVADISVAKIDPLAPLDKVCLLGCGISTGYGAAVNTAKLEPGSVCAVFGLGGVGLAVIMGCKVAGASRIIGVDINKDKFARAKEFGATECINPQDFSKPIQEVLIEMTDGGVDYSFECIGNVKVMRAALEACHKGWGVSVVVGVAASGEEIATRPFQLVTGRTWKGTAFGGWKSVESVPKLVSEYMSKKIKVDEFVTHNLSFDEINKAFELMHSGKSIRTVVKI

## NC(=O)CCn1c2ccc(-n3ccnc3)cc2c2ccc(CCC(=O)O)cc21 [Compound 17, 3-(imidazol-1(H)-yl)-7-(2-carboxylethyl)-9(H)-(2-aminocarbonylethyl) carbazole]
GSNOR enzyme [1]; Table 2a, test compound 20 μM, pH 7.4, 25° C., read-out: % Inhibit. at 20 μM
  inhibition at 20 µM: 92.8%
GSNOR enzyme [1]; Table 2b, test compound 20 uM, read-out: % GSNOR Inhibition at 20 uM
  inhibition at 20 µM: 92.8%
[2]; 3 mg/kg
  ORO (Oil-Red-O) steatosis score relative to disease control: −28%
  change of liver to body weight ratio compared with disease control: −18.5%
  weight put on relative to naïve controls at day 21: +1.3%
  liver to body weight ratio: 0.054
  decrease of percentage collagen proportion area (CPA), Masson's trichrome staining, liver: 29%
[2]; 3 mg/kg and 10 mg/kg
  steatosis and lobular inflammation in the liver as indicated by the NAS: markedly reduced steatosis and lobular inflammation in the liver
[2]; 10 mg/kg
  ORO (Oil-Red-O) steatosis score relative to disease control: −52%
  change of liver to body weight ratio compared with disease control: −16.2%
  weight put on relative to naïve controls at day 21: −43%
  liver to body weight ratio: 0.055
  decrease of percentage collagen proportion area (CPA), Masson's trichrome staining, liver: 20%
[2]; 10 mg/kg, i.p., p<0.01
  reduction of plasma glucose relative to disease control: 17.4%
[2]; 3 and 10 mg/kg, 21 days of treatment
  body weight increase compared with disease controls: both less than disease controls
[2]; 3 and 10 mg/kg, p<0.05
  NAS (in words): significantly decreased the NAS
[2]; Day 1, 3 mg/kg once daily
  change in body weight (g), Mean: 0.00 g
[2]; Day 1, 10 mg/kg once daily
  change in body weight (g), Mean: 0.00 g
[2]; Day 2, 3 mg/kg once daily
  change in body weight (g), Mean: 0.54 g
[2]; Day 2, 10 mg/kg once daily
  change in body weight (g), Mean: 0.65 g
[2]; Day 3, 3 mg/kg once daily
  change in body weight (g), Mean: 0.85 g
[2]; Day 3, 10 mg/kg once daily
  change in body weight (g), Mean: 0.96 g
[2]; Day 4, 3 mg/kg once daily
  change in body weight (g), Mean: 0.48 g
[2]; Day 4, 10 mg/kg once daily
  change in body weight (g), Mean: 0.76 g
[2]; Day 5, 3 mg/kg once daily
  change in body weight (g), Mean: 0.35 g
[2]; Day 5, 10 mg/kg once daily
  change in body weight (g), Mean: 0.81 g
[2]; Day 6, 3 mg/kg once daily
  change in body weight (g), Mean: 0.68 g
[2]; Day 6, 10 mg/kg once daily
  change in body weight (g), Mean: 0.84 g
[2]; Day 7, 3 mg/kg once daily
  change in body weight (g), Mean: 0.54 g
[2]; Day 7, 10 mg/kg once daily
  change in body weight (g), Mean: 0.19 g
[2]; Day 8, 3 mg/kg once daily
  change in body weight (g), Mean: 0.21 g
[2]; Day 8, 10 mg/kg once daily
  change in body weight (g), Mean: 0.78 g
[2]; Day 9, 3 mg/kg once daily
  change in body weight (g), Mean: 0.53 g
[2]; Day 9, 10 mg/kg once daily
  change in body weight (g), Mean: 0.80 g
[2]; Day 10, 3 mg/kg once daily
  change in body weight (g), Mean: 0.56 g
[2]; Day 10, 10 mg/kg once daily
  change in body weight (g), Mean: 0.89 g
[2]; Day 11, 3 mg/kg once daily
  change in body weight (g), Mean: 0.40 g
[2]; Day 11, 10 mg/kg once daily
  change in body weight (g), Mean: 0.91 g
[2]; Day 12, 3 mg/kg once daily
  change in body weight (g), Mean: -0.49 g
[2]; Day 12, 10 mg/kg once daily
  change in body weight (g), Mean: -0.08 g
[2]; Day 13, 3 mg/kg once daily
  change in body weight (g), Mean: 0.81 g
[2]; Day 13, 10 mg/kg once daily
  change in body weight (g), Mean: 0.74 g
[2]; Day 14, 3 mg/kg once daily
  change in body weight (g), Mean: 1.10 g
[2]; Day 14, 10 mg/kg once daily
  change in body weight (g), Mean: 0.71 g
[2]; Day 15, 3 mg/kg once daily
  change in body weight (g), Mean: 0.84 g
[2]; Day 15, 10 mg/kg once daily
  change in body weight (g), Mean: 1.01 g
[2]; Day 16, 3 mg/kg once daily
  change in body weight (g), Mean: 1.32 g
[2]; Day 16, 10 mg/kg once daily
  change in body weight (g), Mean: 1.09 g
[2]; Day 17, 3 mg/kg once daily
  change in body weight (g), Mean: 1.38 g
[2]; Day 17, 10 mg/kg once daily
  change in body weight (g), Mean: 1.13 g
[2]; Day 18, 3 mg/kg once daily
  change in body weight (g), Mean: 1.11 g
[2]; Day 18, 10 mg/kg once daily
  change in body weight (g), Mean: 0.97 g
[2]; Day 19, 3 mg/kg once daily
  change in body weight (g), Mean: 1.22 g
[2]; Day 19, 10 mg/kg once daily
  change in body weight (g), Mean: 1.16 g
[2]; Day 20, 3 mg/kg once daily
  change in body weight (g), Mean: 1.56 g
[2]; Day 20, 10 mg/kg once daily
  change in body weight (g), Mean: 0.80 g
[2]; Day 21, 3 mg/kg once daily
  change in body weight (g), Mean: 1.57 g
[2]; Day 21, 10 mg/kg once daily
  change in body weight (g), Mean: 0.89 g
[3]
  pulmonary fibrosis (Ashcroft score and percentage collagen proportionate area) vs disease control: notable mitigation of pulmonary fibrosis; also recorded: decreased lung fibrosis
IL-6; CD-1 male mice, IP or IV, cytokine typically 6 hrs after LPS
  LPS/IL6 Lowest tested active: 0.03 mg/kg
IL-6; dosed 12 hrs before LPS I.P., serum 6 hrs after LPS
  IL-6 in serum after LPS (mouse inflammation assay): active
GSNOR enzyme [4]
  IC50: 1000 to 5000 nM
